Where two headings read alike, the source gives them in different places. Values belong to the molecule of their own block, whether it stands above or below them.
What was measured:
[1] = target: T1, ADRB2 (Homo sapiens, UniProt P07550); format: cell-based; conditions: ADRB2-tTA with low efficiency cleavage site; clone 41 cells
[2] = target: ADRB1 (Homo sapiens, UniProt P08588); conditions: for inhibition of receptor response by antagonist: FIG. 11F
[3] = target: T1, ADRB2
[4] = target: T2, ADRA2C (Homo sapiens, UniProt P18825)
T2 sequence (P18825 1-462): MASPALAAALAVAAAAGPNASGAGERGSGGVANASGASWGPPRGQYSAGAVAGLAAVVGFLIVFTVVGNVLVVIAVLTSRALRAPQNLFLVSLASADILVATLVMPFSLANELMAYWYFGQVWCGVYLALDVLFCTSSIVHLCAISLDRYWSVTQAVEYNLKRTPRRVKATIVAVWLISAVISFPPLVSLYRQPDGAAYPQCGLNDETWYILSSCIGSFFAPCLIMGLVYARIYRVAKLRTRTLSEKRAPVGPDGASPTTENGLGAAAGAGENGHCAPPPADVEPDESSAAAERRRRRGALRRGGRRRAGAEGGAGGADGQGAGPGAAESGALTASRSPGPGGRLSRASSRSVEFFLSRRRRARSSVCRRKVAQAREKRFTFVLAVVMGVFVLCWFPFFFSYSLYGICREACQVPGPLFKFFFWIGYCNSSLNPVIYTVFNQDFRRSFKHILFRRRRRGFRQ

[5] = target: T3, ADRA2A (Homo sapiens, UniProt P08913); conditions: antagonist experiments, FIGS. 11F to 11J
T3 sequence (P08913 1-465): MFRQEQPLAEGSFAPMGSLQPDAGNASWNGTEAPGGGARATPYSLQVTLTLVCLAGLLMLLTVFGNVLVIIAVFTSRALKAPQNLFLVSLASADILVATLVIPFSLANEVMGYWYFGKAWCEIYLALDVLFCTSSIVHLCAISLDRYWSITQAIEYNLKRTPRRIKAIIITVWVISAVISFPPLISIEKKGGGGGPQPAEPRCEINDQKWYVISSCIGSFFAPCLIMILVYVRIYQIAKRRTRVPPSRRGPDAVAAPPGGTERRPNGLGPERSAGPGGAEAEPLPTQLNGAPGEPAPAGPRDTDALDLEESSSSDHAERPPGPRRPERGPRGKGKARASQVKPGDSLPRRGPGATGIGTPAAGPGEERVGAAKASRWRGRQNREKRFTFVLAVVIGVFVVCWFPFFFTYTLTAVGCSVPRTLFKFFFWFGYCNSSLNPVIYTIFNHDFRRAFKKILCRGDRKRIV

[6] = target: T4, ADRA2B (Homo sapiens, UniProt P18089); conditions: antagonist experiments, FIGS. 11F to 11J
T4 sequence (P18089 1-450): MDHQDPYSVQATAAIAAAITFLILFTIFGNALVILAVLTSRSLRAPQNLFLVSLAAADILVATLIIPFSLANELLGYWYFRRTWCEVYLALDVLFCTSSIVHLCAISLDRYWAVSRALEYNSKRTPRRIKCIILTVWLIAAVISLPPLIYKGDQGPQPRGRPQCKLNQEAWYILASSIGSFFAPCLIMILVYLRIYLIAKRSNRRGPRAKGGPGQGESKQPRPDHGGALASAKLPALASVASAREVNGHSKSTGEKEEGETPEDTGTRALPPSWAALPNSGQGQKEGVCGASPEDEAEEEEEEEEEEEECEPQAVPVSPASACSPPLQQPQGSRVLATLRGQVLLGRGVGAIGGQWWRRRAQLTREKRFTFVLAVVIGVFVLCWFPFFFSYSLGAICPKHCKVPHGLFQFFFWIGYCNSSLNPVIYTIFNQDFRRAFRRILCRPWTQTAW

[7] = target: dopamine 2 receptor (DRD2) (Homo sapiens, UniProt P14416); conditions: 10 μM, medium efficiency cleavage site
[8] = target: T5, DRD2 (Homo sapiens, UniProt P14416); conditions: 10 μM; DRD2-AVPR2 Tail-tTA, low efficiency cleavage site
[9] = target: T1, ADRB2; conditions: 1 μM each agonist; mixed clone 41 and clone 1H10 cells; about 24 hours
[10] = target: T5, DRD2; conditions: 1 μM each agonist; mixed clone 41 and clone 1H10 cells; about 24 hours
[11] = target: DRD2 (Homo sapiens, UniProt P14416+P30550); conditions: μM dopamine; DRD2-GRPR 42aa Tail-tTA, low efficiency cleavage site
[12] = target: ADRA1A (Homo sapiens, UniProt P35348); conditions: 10 μM, low efficiency cleavage site
[13] = target: serotonin receptor 1a (HTR1A) (Homo sapiens, UniProt P08908); format: cell-based; conditions: 10 μM; low efficiency cleavage site
[14] = target: DRD2-GRPR 42aa Tail-tTA fusion construct containing the low efficiency cleavage site (UniProt P14416); test: cell-based or functional assay
[15] = target: T6, human Type I Interferon Receptor (Homo sapiens, UniProt P17181+P48551); test: IFNAR1-tTA / IFNAR2.2-TEV luciferase reporter assay in HTL5B8.1 cells; format: cell-based; conditions: 5000 U/ml, 18-20 hours
T6 sequence (P17181 28-557): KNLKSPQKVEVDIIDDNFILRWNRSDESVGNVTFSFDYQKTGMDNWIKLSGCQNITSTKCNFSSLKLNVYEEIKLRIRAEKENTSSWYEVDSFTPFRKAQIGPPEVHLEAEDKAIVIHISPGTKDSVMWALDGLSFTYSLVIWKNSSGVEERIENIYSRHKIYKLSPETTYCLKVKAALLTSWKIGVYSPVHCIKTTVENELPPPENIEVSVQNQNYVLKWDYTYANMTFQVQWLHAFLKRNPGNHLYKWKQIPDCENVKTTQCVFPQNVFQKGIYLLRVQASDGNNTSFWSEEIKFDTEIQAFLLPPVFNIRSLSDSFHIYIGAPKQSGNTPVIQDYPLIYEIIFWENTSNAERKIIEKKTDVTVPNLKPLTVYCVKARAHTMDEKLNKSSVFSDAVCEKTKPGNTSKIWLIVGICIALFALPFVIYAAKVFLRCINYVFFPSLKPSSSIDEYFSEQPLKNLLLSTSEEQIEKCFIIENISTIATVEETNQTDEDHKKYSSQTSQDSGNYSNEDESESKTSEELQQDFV
T6 sequence (P48551 27-515): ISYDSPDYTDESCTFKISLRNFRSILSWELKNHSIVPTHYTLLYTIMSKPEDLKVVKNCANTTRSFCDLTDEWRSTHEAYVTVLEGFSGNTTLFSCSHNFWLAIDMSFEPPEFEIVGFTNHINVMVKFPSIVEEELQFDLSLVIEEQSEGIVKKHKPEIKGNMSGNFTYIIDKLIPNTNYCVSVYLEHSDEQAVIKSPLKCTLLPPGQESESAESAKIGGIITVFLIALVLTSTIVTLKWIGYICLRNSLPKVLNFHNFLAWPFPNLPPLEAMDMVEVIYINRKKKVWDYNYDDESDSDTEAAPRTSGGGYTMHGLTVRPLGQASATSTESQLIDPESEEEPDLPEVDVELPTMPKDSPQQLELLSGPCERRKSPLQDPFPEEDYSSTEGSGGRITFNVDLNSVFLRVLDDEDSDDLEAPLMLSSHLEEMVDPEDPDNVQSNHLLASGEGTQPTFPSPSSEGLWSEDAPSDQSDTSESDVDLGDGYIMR

[16] = target: T6, human Type I Interferon Receptor; test: IFNAR1-GAL4-NF-κB / IFNAR2.2-TEV luciferase reporter assay in CHO-K1 cells; format: cell-based; design: expressed in transfected cells; host or cells: CHO-K1; CMV-STAT1, CMV-STAT2 and pFR-Luc co-transfected
[17] = target: chemokine (C-C motif) receptor 5 (CCR5) (Homo sapiens, UniProt P51681); test: CCR5-tTA reporter assay in clone 34 cells; format: cell-based; conditions: 1 μg/ml; low efficiency cleavage site
Source text: α Constructs were also made to establish an assay for the G protein coupled chemokine (C—C motif) receptor 5 (CCR5). The CCR5 coding region (Genbank Accession Number: NM_000579) (SEQ ID NO: 32) was modified to place Not I site at the 5′ end and replace the stop codon with a BamHI site using PCR with the primers
The first modified coding region was cut with ClaI and BamHI and the second was cut with BsaI and ClaI. Both fragments were ligated into the AVPR2-tTA constructs described supra, which had been cut with EcoRI and BamHI. This replaced the entire coding sequence of AVPR2 with the coding sequence of CCR5.
Assays were carried out using 1 μg/ml “Regulated on Activation, Normal T-Cell Expressed and Secreted” (RANTES), a known agonist for CCR5.

[18] = target: CCR5-tTA fusion construct containing the low efficiency cleavage site (UniProt P51681); test: cell-based or functional assay
[19] = target: EGFR-TEV-NIa-Pro cleavage (Leu)-tTA (human) (UniProt P00533); test: cell-based or functional assay
[20] = target: epidermal growth factor receptor (EGFR) (Homo sapiens, UniProt P00533); test: EGFR-tTA / PLC Gamma1-TEV luciferase reporter assay in HTL5B8.1 cells; format: cell-based; conditions: 100 ng/ml; six hours
[21] = target: human Type I Interferon Receptor (IFNAR1-TEV-NIa-Pro cleavage (L)-tTA with IFNAR2.2-TEV, in HTL5B8.1 cells) (human; tobacco etch virus) (UniProt P17181); test: cell-based or functional assay

Sequence of ADRB1 (P08588 whole entry): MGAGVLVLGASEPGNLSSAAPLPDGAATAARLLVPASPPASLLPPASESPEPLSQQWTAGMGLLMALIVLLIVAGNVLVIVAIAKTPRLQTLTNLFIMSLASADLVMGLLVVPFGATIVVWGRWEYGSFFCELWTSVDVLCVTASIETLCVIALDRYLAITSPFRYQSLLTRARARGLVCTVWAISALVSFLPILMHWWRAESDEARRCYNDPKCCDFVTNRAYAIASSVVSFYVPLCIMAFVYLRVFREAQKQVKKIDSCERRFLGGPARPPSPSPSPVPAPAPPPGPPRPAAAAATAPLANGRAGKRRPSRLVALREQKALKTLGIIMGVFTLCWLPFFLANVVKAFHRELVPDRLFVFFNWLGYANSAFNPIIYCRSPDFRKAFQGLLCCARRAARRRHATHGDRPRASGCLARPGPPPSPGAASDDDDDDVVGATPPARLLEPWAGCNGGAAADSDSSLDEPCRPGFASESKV
Sequence of dopamine 2 receptor (DRD2) (P14416 whole entry): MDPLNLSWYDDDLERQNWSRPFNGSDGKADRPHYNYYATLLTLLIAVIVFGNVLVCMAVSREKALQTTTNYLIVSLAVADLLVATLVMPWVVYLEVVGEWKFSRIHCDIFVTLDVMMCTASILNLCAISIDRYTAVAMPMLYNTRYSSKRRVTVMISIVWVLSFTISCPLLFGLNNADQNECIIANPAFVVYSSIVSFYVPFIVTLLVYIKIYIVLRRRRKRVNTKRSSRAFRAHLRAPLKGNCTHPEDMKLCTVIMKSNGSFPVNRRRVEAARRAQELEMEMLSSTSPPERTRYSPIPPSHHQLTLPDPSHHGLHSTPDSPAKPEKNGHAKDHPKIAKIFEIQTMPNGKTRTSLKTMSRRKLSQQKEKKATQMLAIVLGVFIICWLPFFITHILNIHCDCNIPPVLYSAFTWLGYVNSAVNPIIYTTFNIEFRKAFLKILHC
Sequence of DRD2-GRPR 42aa Tail-tTA fusion construct containing the low efficiency cleavage site (P14416 other isoform, or with tags, fused parts or gaps): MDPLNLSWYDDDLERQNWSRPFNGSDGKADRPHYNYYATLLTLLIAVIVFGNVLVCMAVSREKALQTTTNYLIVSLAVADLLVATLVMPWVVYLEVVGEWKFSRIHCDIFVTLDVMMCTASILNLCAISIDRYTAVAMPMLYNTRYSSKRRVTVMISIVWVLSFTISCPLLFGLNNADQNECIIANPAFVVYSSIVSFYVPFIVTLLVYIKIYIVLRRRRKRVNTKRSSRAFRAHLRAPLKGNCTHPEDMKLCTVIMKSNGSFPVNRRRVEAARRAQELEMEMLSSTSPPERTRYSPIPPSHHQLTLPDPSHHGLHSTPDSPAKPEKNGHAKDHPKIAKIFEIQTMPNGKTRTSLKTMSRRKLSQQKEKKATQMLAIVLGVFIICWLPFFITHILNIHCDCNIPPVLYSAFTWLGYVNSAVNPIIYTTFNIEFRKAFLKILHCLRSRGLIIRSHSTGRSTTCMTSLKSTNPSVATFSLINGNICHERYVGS
Sequence of CCR5-tTA fusion construct containing the low efficiency cleavage site (P51681 whole entry, the tested form may be a part): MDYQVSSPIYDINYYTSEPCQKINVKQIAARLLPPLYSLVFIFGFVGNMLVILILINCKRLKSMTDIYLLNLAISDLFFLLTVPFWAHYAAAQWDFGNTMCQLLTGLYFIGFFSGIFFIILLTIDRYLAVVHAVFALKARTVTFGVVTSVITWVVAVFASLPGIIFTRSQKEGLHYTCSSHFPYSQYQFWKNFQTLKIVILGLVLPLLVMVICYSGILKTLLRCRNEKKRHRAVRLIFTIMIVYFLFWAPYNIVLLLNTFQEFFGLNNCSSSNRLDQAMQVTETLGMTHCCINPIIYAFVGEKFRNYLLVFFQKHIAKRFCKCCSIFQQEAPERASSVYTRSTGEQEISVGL

Molecule: Nc1ncnc2c1ncn2[C@@H]1O[C@H](COP(=O)(O)OP(=O)(O)OP(=O)(O)O)[C@@H](O)[C@H]1O [ATP]
induction of reporter gene activity by an agonist of other, endogenous GPCRs (P2Y1, P2Y2) [1]: Stimulation of another GPCR pathway was irrelevant

Molecule: Brc1c(NC2=NCCN2)ccc2nccnc12 [UK14,304]
agonist effect on the receptor ([2]; any concentration used, FIG. 11A): no effect
agonist effect on the receptor ([3]; any concentration used, FIG. 11B): no effect
agonist response, UK14,304 compared with isoproterenol ([4]; varying concentrations of agonist): respond to much lower concentration of UK14,304 than isoproterenol

inhibition of receptor response by antagonist [2]: markedly inhibited
Molecule: C=CCc1ccccc1OCC(O)CNC(C)C (centres unmarked) [alprenolol]
inhibition of receptor response by antagonist [5]: only a modest inhibitory effect at the highest concentrations tested
inhibition of receptor response by antagonist [6]: only a modest inhibitory effect at the highest concentrations tested
inhibition of receptor response by antagonist ([4]; antagonist experiments, FIGS. 11F to 11J): only a modest inhibitory effect at the highest concentrations tested

Molecule: Cl.NCCc1ccc(O)c(O)c1 [dopamine, dopamine HCl]
maximal response, induction of reporter gene expression over the background ([7]; ARRB1-TEV-NIa protease fusion): 2.1 fold
maximal response, induction of reporter gene expression over the background ([7]; ARRB2-TEV-NIa protease fusion): 2.7 fold
maximal response, induction of reporter gene expression over the background [8]: approximately 60 fold
induction of beta-galactosidase reporter gene activity [9]: remained unchanged
induction of luciferase activity [10]: 3.5 fold
maximal response, increase in reporter gene activity [11]: approximately 30 fold

Molecule: CNC[C@H](O)c1ccc(O)c(O)c1 [epinephrine]
maximal response, induction of reporter gene expression over the background ([12]; ADRA1A-GRPR 23aa Tail-tTA): approximately 102 fold
maximal response, increase in reporter gene activity ([12]; ADRA1A-GRPR 42aa Tail-tTA): approximately 14 fold

maximal response, induction of reporter gene expression over background level [13]: 4.6 fold
Molecule: NCCc1c[nH]c2ccc(O)cc12 [serotonin]

inhibition of receptor response by antagonist [2]: no effect
Molecule: COC(=O)[C@@H]1[C@H]2C[C@H]3c4[nH]c5ccccc5c4CCN3C[C@@H]2CC[C@@H]1O [yohimbine]
inhibition of receptor response by antagonist ([3]; FIG. 11G): inhibition at only the very highest concentrations tested

Molecule: ARRB2-TEV-NIa protease fusion (from UniProt P32121 1-409)
fold increase in reporter gene activity (luciferase), dopamine [14]: 30 fold

increase in reporter gene activity [15]: 15 fold
increase in reporter gene activity ([16]; 5000 U/ml, 6 hours, CHO-K1 cells with reporter, IFNAR and STAT constructs): 3 fold
effect on reporter gene activity ([16]; CHO-K1 cells transfected with the reporter and control plasmids): no effect
Molecule: IFN-α

maximal response, induction of reporter gene expression over the background [17]: approximately 40 fold
Molecule: RANTES: Regulated on Activation, Normal T-Cell Expressed and Secreted, a known agonist for CCR5

maximal fold induction of reporter gene expression over the background, 1 µg/ml RANTES [18]: 40 fold
Molecule: Regulated on Activation, Normal T-Cell Expressed and Secreted (RANTES) (from UniProt P13501 24-91) (ligand)

fold increase of luciferase reporter gene activity, 100 ng/ml human Transforming Growth Factor-Alpha [19]: 18.3 fold
Molecule: human Transforming Growth Factor-Alpha (from UniProt P01135 40-89) (ligand)

increase of luciferase reporter gene activity [20]: 18.3 fold
Molecule: human Transforming Growth Factor—Alpha: human Transforming Growth Factor-Alpha, EGFR agonist

Molecule: human interferon-alpha (ligand)
fold increase in reporter gene activity (luciferase), 5000 U/ml IFN-α [21]: 15 fold

Molecule: human interferon-beta (from UniProt P01574 22-187) (ligand)
fold increase in reporter gene activity (luciferase), 5000 U/ml IFN-β [21]: 10 fold

Source: patent US20080274913A1, “Multiplex Array Useful for Assaying Protein-Protein Interaction” (priority 2005, published 2008)
